Data reported in patent US20080009418A1, “Selective Inhibitors” (Alchemia LTD., priority 2004, published 2008).

Assays:
[1] = target: T1, Human Melanocortin (MC4) (Homo sapiens, UniProt P32245); assay: Radioligand binding, human melanocortin MC4 membranes, FlashPlate, [125I]-NDP-αMSH; details: compound at 10 μM, [125I]-NDP-αMSH
T1 construct: purchased Perkin Elmer Biosignal
How it was run: (§1)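 Cloned human receptor membranes were coated onto FlashPlate wells and incubated with radioligand and compound (added from a 0.5 mM DMSO daughter plate) for 1 hour at room temperature in the dark. Scintillation counting gave percent inhibition, with DMSO defining total and reference ligand defining non-specific binding.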

[2] = target: T2, Human melanocortin (MC5) (Homo sapiens, UniProt P33032); assay: Radioligand binding, human melanocortin MC5 membranes, FlashPlate, [125I]-NDP-αMSH; details: compound at 10 μM, [125I]-NDP-αMSH
T2 construct: purchased Perkin Elmer Biosignal
T2 sequence (P33032 whole entry): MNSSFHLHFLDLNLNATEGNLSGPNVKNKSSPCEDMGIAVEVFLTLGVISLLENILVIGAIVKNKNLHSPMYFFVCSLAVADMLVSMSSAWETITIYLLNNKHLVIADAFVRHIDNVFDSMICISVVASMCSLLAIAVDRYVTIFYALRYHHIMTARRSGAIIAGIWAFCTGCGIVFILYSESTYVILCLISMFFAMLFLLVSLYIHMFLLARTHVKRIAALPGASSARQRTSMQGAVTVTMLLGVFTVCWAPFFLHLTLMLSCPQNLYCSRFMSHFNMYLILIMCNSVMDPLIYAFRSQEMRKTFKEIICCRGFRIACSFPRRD
How it was run: as §1

[3] = target: T3, Human opioid (ORL1) (Homo sapiens, UniProt P41146); assay: Radioligand binding, human opioid ORL1 membranes, FlashPlate, [125I]-Nociceptin; details: compound at 10 μM, [125I]-Nociceptin
T3 construct: purchased Perkin Elmer Biosignal
T3 sequence (P41146 whole entry): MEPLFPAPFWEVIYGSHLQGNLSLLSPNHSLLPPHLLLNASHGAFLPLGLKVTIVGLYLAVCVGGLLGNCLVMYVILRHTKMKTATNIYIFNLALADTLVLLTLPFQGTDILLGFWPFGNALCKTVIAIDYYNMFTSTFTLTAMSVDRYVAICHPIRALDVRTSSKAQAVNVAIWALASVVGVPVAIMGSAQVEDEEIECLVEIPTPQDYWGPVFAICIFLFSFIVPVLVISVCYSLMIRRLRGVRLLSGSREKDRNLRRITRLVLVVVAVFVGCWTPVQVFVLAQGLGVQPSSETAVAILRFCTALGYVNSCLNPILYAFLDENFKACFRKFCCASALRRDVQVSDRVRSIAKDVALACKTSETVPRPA
How it was run: as §1

[4] = target: T4, Human κ-Opioid (KOP) (Homo sapiens, UniProt P41145); assay: Radioligand binding, human κ-opioid (KOP) membranes, filtration, [3H]-Diprenorphine; details: compound at 10 μM, [3H]-Diprenorphine
T4 construct: purchased Perkin Elmer Biosignal
T4 sequence (P41145 whole entry): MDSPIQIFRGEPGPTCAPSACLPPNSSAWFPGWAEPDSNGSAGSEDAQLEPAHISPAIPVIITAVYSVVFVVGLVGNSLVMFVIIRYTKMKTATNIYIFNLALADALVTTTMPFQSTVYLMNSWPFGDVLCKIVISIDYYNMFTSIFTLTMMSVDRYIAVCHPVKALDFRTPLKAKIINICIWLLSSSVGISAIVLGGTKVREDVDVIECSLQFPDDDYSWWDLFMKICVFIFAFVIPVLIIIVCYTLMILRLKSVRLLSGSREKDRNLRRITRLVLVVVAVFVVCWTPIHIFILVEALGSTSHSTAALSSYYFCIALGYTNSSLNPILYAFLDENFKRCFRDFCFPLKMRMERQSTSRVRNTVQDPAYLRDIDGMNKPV
How it was run: (§2)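 Percent inhibition of radioligand binding measured on recombinant human membranes: NK1 with [125I]-Substance P, KOP with [3H]-Diprenorphine. Incubation 1 h at room temperature, then harvest onto 0.3% PEI-soaked filters, cold Tris-HCl pH 7.4 washes and scintillation counting; non-specific binding from reference ligand wells.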

[5] = target: T5, Human neuropeptide Y (NPY-Y1) (Homo sapiens, UniProt P25929); assay: Radioligand binding, human neuropeptide Y NPY-Y1 membranes, FlashPlate, [125I]-PYY; details: compound at 10 μM, [125I]-PYY
T5 construct: purchased Perkin Elmer Biosignal
T5 sequence (P25929 1-384): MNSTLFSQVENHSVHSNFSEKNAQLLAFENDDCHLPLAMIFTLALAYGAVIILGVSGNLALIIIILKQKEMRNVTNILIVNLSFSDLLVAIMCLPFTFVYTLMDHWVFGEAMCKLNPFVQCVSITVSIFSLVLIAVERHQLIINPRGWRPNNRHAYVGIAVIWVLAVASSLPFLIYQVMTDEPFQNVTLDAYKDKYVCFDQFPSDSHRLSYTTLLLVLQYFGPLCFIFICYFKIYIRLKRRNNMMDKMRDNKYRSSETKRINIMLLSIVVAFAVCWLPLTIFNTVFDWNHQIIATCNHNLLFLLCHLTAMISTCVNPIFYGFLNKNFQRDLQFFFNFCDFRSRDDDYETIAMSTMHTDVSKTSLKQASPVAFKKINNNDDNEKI
How it was run: as §1

[6] = target: T6, Human melanin-concentrating hormone (MCH1) (Homo sapiens, UniProt Q99705); assay: Radioligand binding, human melanin-concentrating hormone MCH1 membranes, FlashPlate, [125I]-S36057; details: compound at 10 μM
T6 construct: purchased Perkin Elmer Biosignal
T6 sequence (Q99705 whole entry): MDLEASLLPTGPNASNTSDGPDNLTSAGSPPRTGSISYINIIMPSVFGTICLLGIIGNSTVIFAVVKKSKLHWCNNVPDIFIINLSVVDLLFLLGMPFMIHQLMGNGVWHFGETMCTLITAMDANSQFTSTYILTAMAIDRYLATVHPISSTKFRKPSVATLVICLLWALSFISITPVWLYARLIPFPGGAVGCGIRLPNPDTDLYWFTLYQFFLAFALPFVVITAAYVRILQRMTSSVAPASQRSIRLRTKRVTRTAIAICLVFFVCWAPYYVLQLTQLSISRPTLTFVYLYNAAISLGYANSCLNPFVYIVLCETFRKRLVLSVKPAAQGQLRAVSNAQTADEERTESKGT
How it was run: as §1

[7] = target: T7, Human neurokinin (NK1) (Homo sapiens, UniProt P25103); assay: Radioligand binding, human neurokinin NK1 membranes, filtration, [125I]-Substance P; details: compound at 10 μM, [125I]-Substance P
T7 construct: purchased Perkin Elmer Biosignal
T7 sequence (P25103 whole entry): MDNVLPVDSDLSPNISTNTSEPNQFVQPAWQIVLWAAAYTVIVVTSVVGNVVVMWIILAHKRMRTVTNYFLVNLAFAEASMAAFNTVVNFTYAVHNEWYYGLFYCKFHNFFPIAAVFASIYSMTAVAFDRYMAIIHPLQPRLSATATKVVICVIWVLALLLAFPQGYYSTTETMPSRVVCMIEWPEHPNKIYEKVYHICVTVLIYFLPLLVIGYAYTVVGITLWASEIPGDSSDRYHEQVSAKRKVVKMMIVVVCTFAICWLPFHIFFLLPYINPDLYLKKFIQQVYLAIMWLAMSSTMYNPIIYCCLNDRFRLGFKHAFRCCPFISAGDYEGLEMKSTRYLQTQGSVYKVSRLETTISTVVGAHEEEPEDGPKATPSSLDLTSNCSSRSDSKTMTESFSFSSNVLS
How it was run: as §2

[8] = target: T8, Human δ-opioid (DOP) (Homo sapiens, UniProt P41143); assay: Radioligand binding, human δ-opioid (DOP) membranes, FlashPlate, [3H]-Bremazocine; details: compound at 10 μM, [3H]-Bremazocine
T8 construct: purchased Perkin Elmer Biosignal
T8 sequence (P41143 whole entry): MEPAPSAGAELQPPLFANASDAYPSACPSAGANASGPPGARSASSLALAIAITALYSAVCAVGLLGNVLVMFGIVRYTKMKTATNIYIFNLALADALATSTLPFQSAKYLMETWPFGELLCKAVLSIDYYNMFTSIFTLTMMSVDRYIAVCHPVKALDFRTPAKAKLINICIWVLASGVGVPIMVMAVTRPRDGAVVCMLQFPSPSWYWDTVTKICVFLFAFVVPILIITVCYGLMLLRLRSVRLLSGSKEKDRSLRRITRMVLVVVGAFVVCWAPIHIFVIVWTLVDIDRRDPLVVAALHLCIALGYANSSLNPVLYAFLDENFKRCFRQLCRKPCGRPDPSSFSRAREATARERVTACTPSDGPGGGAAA
How it was run: as §1

[9] = target: T9, Mouse urotensin (mUR2) (Mus musculus, UniProt Q8VIH9); assay: Radioligand binding, mouse urotensin mUR2 membranes, FlashPlate, [125I]-Urotensin II; details: compound at 10 μM, [125I]-Urotensin II
T9 construct: purchased Perkin Elmer Biosignal
T9 sequence (Q8VIH9 1-385): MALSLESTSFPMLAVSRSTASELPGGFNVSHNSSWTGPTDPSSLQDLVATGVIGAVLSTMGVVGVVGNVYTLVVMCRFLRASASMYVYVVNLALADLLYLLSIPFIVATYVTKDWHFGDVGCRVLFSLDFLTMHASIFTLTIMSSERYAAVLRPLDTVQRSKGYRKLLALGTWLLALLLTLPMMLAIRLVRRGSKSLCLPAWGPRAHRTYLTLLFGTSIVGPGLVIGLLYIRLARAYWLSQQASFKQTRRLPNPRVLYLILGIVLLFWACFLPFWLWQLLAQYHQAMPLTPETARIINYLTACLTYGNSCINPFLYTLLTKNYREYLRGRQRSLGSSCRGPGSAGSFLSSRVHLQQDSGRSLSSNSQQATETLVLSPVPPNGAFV
How it was run: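 Cloned mouse urotensin (mUR2) receptor membranes from Perkin Elmer Biosignal were immobilized in FlashPlate microplates using a proprietary coating. Each well got 19.5 μl buffer, then 0.5 μl of DMSO, reference ligand, or compound. Adding 5 μl of [125I]-Urotensin II, diluted to 5× final concentration in binding buffer, started binding. Plates were sealed with TopSeal-A and incubated 1 hour at room temperature in the dark. Wells were counted for 30 seconds each on a TopCount after a 60-second delay, and percentage inhibition was calculated.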

[10] = target: T10, Human Melanocortin (MC3) (Homo sapiens, UniProt P41968); assay: Radioligand binding, human melanocortin MC3 membranes, FlashPlate, [125I]-NDP-αMSH; details: compound at 10 μM, [125I]-NDP-αMSH
T10 construct: purchased Perkin Elmer Biosignal
T10 sequence (P41968 whole entry): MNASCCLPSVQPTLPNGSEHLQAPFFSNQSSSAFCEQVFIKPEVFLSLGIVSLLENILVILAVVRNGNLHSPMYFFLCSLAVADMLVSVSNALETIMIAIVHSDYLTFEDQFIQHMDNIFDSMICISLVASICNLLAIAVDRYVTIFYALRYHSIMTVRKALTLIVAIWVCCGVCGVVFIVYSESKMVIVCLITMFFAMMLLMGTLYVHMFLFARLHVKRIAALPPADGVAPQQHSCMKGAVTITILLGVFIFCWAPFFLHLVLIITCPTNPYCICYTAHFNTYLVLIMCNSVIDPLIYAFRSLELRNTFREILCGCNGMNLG
How it was run: as §1

[11] = target: T11, Human μ-opioid (MOP) (Homo sapiens, UniProt P35372); assay: Radioligand binding, human μ-opioid (MOP) membranes, FlashPlate, [3H]-Naloxone; details: compound at 10 μM, [3H]-Naloxone
T11 construct: purchased Perkin Elmer Biosignal
T11 sequence (P35372 whole entry): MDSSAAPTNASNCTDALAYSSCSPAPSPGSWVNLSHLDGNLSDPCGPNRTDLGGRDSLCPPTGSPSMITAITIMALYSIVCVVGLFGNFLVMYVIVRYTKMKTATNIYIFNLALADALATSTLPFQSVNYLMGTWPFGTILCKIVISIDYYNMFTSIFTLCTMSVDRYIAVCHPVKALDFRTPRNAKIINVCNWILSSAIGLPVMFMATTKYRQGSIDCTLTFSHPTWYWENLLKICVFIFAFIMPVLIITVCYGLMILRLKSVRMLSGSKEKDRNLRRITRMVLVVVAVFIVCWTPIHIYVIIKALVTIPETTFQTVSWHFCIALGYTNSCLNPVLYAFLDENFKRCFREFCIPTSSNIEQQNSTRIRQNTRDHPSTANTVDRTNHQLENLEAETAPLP
How it was run: as §1

T1 sequence (P32245 whole entry): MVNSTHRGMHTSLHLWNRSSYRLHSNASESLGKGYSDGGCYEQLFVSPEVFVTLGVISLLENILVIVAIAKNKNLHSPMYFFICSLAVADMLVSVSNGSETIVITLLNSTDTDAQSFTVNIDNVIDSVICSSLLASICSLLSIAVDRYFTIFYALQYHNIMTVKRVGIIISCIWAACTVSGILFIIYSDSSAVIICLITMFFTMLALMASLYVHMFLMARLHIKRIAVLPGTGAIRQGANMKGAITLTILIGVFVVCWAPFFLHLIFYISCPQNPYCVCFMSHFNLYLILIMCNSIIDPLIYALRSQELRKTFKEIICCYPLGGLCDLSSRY

Structure (SMILES) | A4: inhibition of radioligand binding ([1]; human MC4 membranes, 10 µM) | A5: inhibition of radioligand binding ([2]; human MC5 membranes) | A2: inhibition of radioligand binding ([4]; human KOP membranes) | A9: inhibition of radioligand binding ([5]; human NPY-Y1 membranes) | A8: inhibition of radioligand binding ([7]; human NK1 membranes) | A1: inhibition of radioligand binding ([8]; human DOP membranes) | A11: inhibition of radioligand binding ([9]; mouse mUR2 membranes) | A3: inhibition of radioligand binding ([10]; human MC3 membranes, 10 µM) | A7: inhibition of radioligand binding ([11]; human MOP membranes) | A4: inhibition of radioligand binding ([1]; FlashPlate) | A5: inhibition of radioligand binding ([2]; FlashPlate) | A10: inhibition of radioligand binding ([3]; FlashPlate) | A2: inhibition of radioligand binding ([4]; filtration) | A9: inhibition of radioligand binding ([5]; FlashPlate) | A6: inhibition of radioligand binding ([6]; [125I]-S36057, FlashPlate) | A8: inhibition of radioligand binding ([7]; filtration) | A1: inhibition of radioligand binding ([8]; FlashPlate) | A11: inhibition of radioligand binding ([9]; FlashPlate) | A3: inhibition of radioligand binding ([10]; FlashPlate) | A7: inhibition of radioligand binding ([11]; FlashPlate) | also measured
NCCCC(=O)NC1C(OCc2ccc3ccccc3c2)OC(COCc2ccc(Cl)cc2)C(O)C1OCc1ccccc1 (single isomer, unassigned) [compound 469] | + (“+” indicates greater than 50% inhibition at 10 μM) | + (“+” indicates greater than 50% inhibition at 10 μM) | − (“−” indicates less than 50% inhibition at 10 μM) | − (“−” indicates less than 50% inhibition at 10 μM) | + (“+” indicates greater than 50% inhibition at 10 μM) | − (“−” indicates less than 50% inhibition at 10 μM) | − (“−” indicates less than 50% inhibition at 10 μM) | − (“−” indicates less than 50% inhibition at 10 μM) | − (“−” indicates less than 50% inhibition at 10 μM) | – | – | – | – | – | – | – | – | – | – | – | A10: inhibition of radioligand binding ([3]; human ORL1 membranes, 10 µM): − (“−” indicates less than 50% inhibition at 10 μM); A6: inhibition of radioligand binding ([6]; [125I]-S36057, human MCH1 membranes): − (“−” indicates less than 50% inhibition at 10 μM)
NCCC(=O)N[C@H]1C(OCc2ccc3ccccc3c2)O[C@H](COCc2ccc(Cl)cc2)[C@@H](O)[C@@H]1OCc1ccc2ccccc2c1 (stereo partly shown) [compound 447] | + (“+” indicates greater than 50% inhibition at 10 μM) | + (“+” indicates greater than 50% inhibition at 10 μM) | − (“−” indicates less than 50% inhibition at 10 μM) | − (“−” indicates less than 50% inhibition at 10 μM) | + (“+” indicates greater than 50% inhibition at 10 μM) | − (“−” indicates less than 50% inhibition at 10 μM) | − (“−” indicates less than 50% inhibition at 10 μM) | + (“+” indicates greater than 50% inhibition at 10 μM) | − (“−” indicates less than 50% inhibition at 10 μM) | – | – | – | – | – | – | – | – | – | – | – | A10: inhibition of radioligand binding ([3]; human ORL1 membranes): − (“−” indicates less than 50% inhibition at 10 μM); A6: inhibition of radioligand binding ([6]; [125I]-S36057, human MCH1 membranes, 10 µM): + (“+” indicates greater than 50% inhibition at 10 μM)
CSC1OC(COCc2ccccc2)C(O)C(OCc2ccc(Cl)cc2)C1NC(=O)CNC(=N)N (stereo not shown) [compound 265] | – | – | – | – | – | – | – | – | – | + (“+” indicates greater than 50% inhibition at 10 μM) | − (“−” indicates less than 50% inhibition at 10 μM) | − (“−” indicates less than 50% inhibition at 10 μM) | − (“−” indicates less than 50% inhibition at 10 μM) | − (“−” indicates less than 50% inhibition at 10 μM) | − (“−” indicates less than 50% inhibition at 10 μM) | + (“+” indicates greater than 50% inhibition at 10 μM) | − (“−” indicates less than 50% inhibition at 10 μM) | − (“−” indicates less than 50% inhibition at 10 μM) | − (“−” indicates less than 50% inhibition at 10 μM) | − (“−” indicates less than 50% inhibition at 10 μM) | –
COCC1OC(OCc2ccc(Cl)cc2)C(NC(=O)CNC(=N)N)C(OCc2ccc(Cl)cc2)C1O (stereo not shown) [compound 200] | – | – | – | – | – | – | – | – | – | + (“+” indicates greater than 50% inhibition at 10 μM) | + (“+” indicates greater than 50% inhibition at 10 μM) | − (“−” indicates less than 50% inhibition at 10 μM) | − (“−” indicates less than 50% inhibition at 10 μM) | − (“−” indicates less than 50% inhibition at 10 μM) | − (“−” indicates less than 50% inhibition at 10 μM) | + (“+” indicates greater than 50% inhibition at 10 μM) | − (“−” indicates less than 50% inhibition at 10 μM) | − (“−” indicates less than 50% inhibition at 10 μM) | + (“+” indicates greater than 50% inhibition at 10 μM) | − (“−” indicates less than 50% inhibition at 10 μM) | –
CSC1OC(COCc2ccc3ccccc3c2)C(O)C(OCc2ccc3ccccc3c2)C1NC(=O)CCCN (stereo not shown) [compound 320] | – | – | – | – | – | – | – | – | – | – | – | – | – | – | – | – | – | – | – | – | A4: inhibition of radioligand binding, human melanocortin (MC4) [1]: − (“−” indicates less than 50% inhibition at 10 μM); A5: inhibition of radioligand binding, human melanocortin (MC5) [2]: + (“+” indicates greater than 50% inhibition at 10 μM); A10: inhibition of radioligand binding, human opioid (ORL1) [3]: − (“−” indicates less than 50% inhibition at 10 μM); A2: inhibition of radioligand binding, human κ-opioid (KOP) [4]: − (“−” indicates less than 50% inhibition at 10 μM); A9: inhibition of radioligand binding, human neuropeptide Y (NPY-Y1) [5]: − (“−” indicates less than 50% inhibition at 10 μM); A6: inhibition of radioligand binding, human melanin-concentrating hormone (MCH1) ([6]; [125I]-S36057): − (“−” indicates less than 50% inhibition at 10 μM); A8: inhibition of radioligand binding, human neurokinin (NK1) [7]: + (“+” indicates greater than 50% inhibition at 10 μM); A1: inhibition of radioligand binding, human δ-opioid (DOP) [8]: − (“−” indicates less than 50% inhibition at 10 μM); A11: inhibition of radioligand binding, mouse urotensin (mUR2) [9]: − (“−” indicates less than 50% inhibition at 10 μM); A3: inhibition of radioligand binding, human melanocortin (MC3) [10]: − (“−” indicates less than 50% inhibition at 10 μM); A7: inhibition of radioligand binding, human μ-opioid (MOP) [11]: − (“−” indicates less than 50% inhibition at 10 μM)
